Test results reported in US12421257B2, “Compositions and methods for inhibiting group II intron RNA” (YALE UNIVERSITY, priority 2018, dated 2025).
Converted amounts (≈) assume the structure as drawn. “Also recorded” adds a separate entry of the source. Where two headings read alike, the source gives them in different places.

Columns and labels:
[1] = tested on: ai5γ group II intron (D135 ribozyme); experiment: Fluorescent D135 ribozyme cleavage assay (IC50); assay type: biochemical, Saccharomyces cerevisiae
In short: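 D135 ribozyme (20 nM) with double-labeled substrate 17/2 DL (20 nM) in 50 mM MOPS pH 7.0, 100 mM MgCl2, 0.5 M KCl; 19 inhibitor concentrations, 5 nM–1 mM, 10 min at 37 °C, EDTA quench, fluorescence read. Triplicates fit to 4-parameter logistic for IC50; mean±s.e.m.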

ai5γ group II intron = experiment: Radioanalytic self-splicing assay of SE RNA (Ki); assay type: biochemical, Saccharomyces cerevisiae; settings: 8 mM MgCl2, 100 mM KCl, pH 7.5, 30° C.
Description: Internally labeled SE RNA (2 nM) was incubated with various concentrations of inhibitor compound under near-physiological conditions (in 50 mM MOPS, pH 7.5, 8 mM MgCl2, 100 mM KCl) at 30° C. Aliquots at different time points were quenched and analyzed on 5% denaturing polyacrylamide gel as previously described (Daniels et al., 1996, Journal of molecular biology, 256:31-49). Data were fit to a single-exponential equation to determine the first order rate constants (kobs). The latter were then plotted against the concentration of the inhibitor and fit to the equation for non-competitive inhibition to determine Ki values: kobs=kmax/(1+[I]/Ki), where kobs and kmax are the first order rate constants measured in the presence and in the absence of the inhibitor, respectively, [I] is the concentration of the inhibitor and Ki is the inhibition constant. Experiments were performed four times for API-014, three times for APY-090, Intronistat A, and Intronistat B and twice for the remaining compounds to ensure reproducibility. Data represent average±s.e.m.

C. parapsilosis = experiment: MIC determination against C. parapsilosis; assay type: cell-based, Candida parapsilosis; settings: Lodderomyces parapsilosis; RPMI-1640, 35° C. or 37° C., turbidity after 24 and 48 hours
In short: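 Broth microdilution in RPMI-1640 with C. parapsilosis at 0.5×10^3 to 2.5×10^3 CFU/mL; test compounds 0.25-128 μg/ml final, 1% DMSO. Plates incubated at 35° C or 37° C, turbidity read visually at 24 and 48 h. MIC = lowest concentration without visible growth; triplicates.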

HEK-293T cells = experiment: Cytotoxicity in HEK-293T cells (Cell Titer Glo); assay type: cell-based, human; settings: Homo sapiens, cytotoxicity, 24 hours with compound, read-out: IC50 HEK-293
[2] = tested on: C. parapsilosis COX1 group IIB intron; experiment: Group II intron splicing in C. parapsilosis by qRT-PCR; assay type: cell-based, Candida parapsilosis; settings: 32 μg/mL
S. cerevisiae = experiment: Yeast respiration assay in S. cerevisiae (MIC in YPD / YPGE); assay type: cell-based, Saccharomyces cerevisiae; settings: Saccharomyces cerevisiae, 30° C.
Description: Yeast respiration assays were conducted either in liquid YPD media (BD Bacto Yeast Extract, BD Bacto Peptone, 2% glucose) or in YPGE media (BD Bacto Yeast Extract, BD Bacto Peptone, 3% glycerol, 3% ethanol), essentially as described for the antifungal MIC assays (see below). To initiate these experiments, 100 μl of a fresh stock solution was prepared for each compound (3.2 mg/ml for Amphotericin B and 12.8 mg/ml for each test compounds) in DMSO. This concentrated stock solution was placed in the first well of 12-well row on a 96-well plate. The subsequent nine wells in this row contained 50 μl of DMSO for serial dilution. From the first well, 50 μl of the compound stock was withdrawn, transferred to the second well and mixed. This process was repeated from the second and subsequent wells, resulting in a 1:2 serial dilution of the stock into DMSO. Wells 11 and 12 contained DMSO only, to be used as no compound control and sterility control, with no inoculum added, respectively. After preparing this plate, 2.5 μl from each of the 12 wells was transferred to the wells of a separate 96-well plate, each of which contained 122.5 μl of YPD or YPGE medium, resulting in a set of serial dilutions of compound into growth media in a volume of 125 μl. Then 50 μl from each of these dilutions were transferred onto a third 96-well plate (the assay plate) and mixed with an equal volume (50 μl) of freshly prepared yeast inoculum in YPD or YPGE medium set to provide 0.5×10^3 to 2.5×10^3 colony forming units per 1 mL (wells 1-11), or YPD/YPGE alone (sterility control, well 12). The final compound concentration range of the assay was 0.25-128 μg/ml for test compounds and 0.0625-32 μg/ml for Amphotericin B. The final concentration of DMSO was 1%. Plates were incubated at 30° C. and visually analyzed for turbidity after 24 and 48 hours of incubation. The lowest compound concentration at which no growth was apparent is reported as the MIC (Table 1). All experiments were performed in triplicate.

IC50 ([1]; D135 ribozyme cleavage of substrate 17/2 DL, 100 mM MgCl2, 500 mM KCl, 37° C., 10 minutes) | Ki (ai5γ group II intron) | MIC (C. parapsilosis) | MIC (S. cerevisiae; YPD medium, read-out: MIC in YPD (glucose)) | MIC (S. cerevisiae; YPGE medium, read-out: MIC in YPGE (glycerol)) | SMILES | In vitro inhibitory activity, SAR statement (in words) ([1]; relative to parent scaffold) | IC50 (HEK-293T cells) | Splicing of C. parapsilosis COX1 in vivo (in words) [2]
> 100 µM | > 1000 µM | > 128 µg/mL |  |  | COc1ccc(/C=C2\Oc3cc(O)cc(O)c3C2=O)cc1OC [APY-001, (Z)-2-(3,4-Dimethoxybenzylidene)-4,6-dihydroxybenzofuran-3(2H)-one] | nearly complete loss of activity | > 128 µg/mL | this effect was not observed; also recorded: inactive
 |  | 16 µg/mL (≈ 55.9 µM) | > 128 µg/mL | 64 µg/mL (≈ 224 µM) | O=C1/C(=C/c2cc(O)c(O)c(O)c2)Oc2cccc(O)c21 [APY-019, (Z)-4-Hydroxy-2-(3,4,5-trihydroxybenzylidene)benzofuran-3(2H)-one] |  | > 32 µg/mL | 
